From paper PMC6566077 (Chemical Science, 2019)
Converted amounts (≈) assume the structure as drawn. Like-named read-outs stand apart in the source and are kept apart here.

Assays:
[1] = type: binding; settings: for Kd: BLI, steady-state model, boronic acid functionalised sensor; for BLI binding to boronic acid functionalised sensor: components 0-100 µg/mL
Mycobacterium smegmatis = test: microbe, parasite or virus in culture; type: cell-based, Mycobacterium smegmatis MC2155; settings: for MIC: Mycolicibacterium smegmatis, read-out: MIC Mycobacteria, Mycobacterium smegmatis
A549 cells [2] = test: Cytotoxicity assay (resazurin, 24 h); settings: 24 h exposure, viability by resazurin
Jurkat E6.1 cells = test: Cytotoxicity assay (resazurin, 24 h); type: cell-based, human; settings: 24 h exposure, viability by resazurin
Caco-2 cells = test: Cytotoxicity assay (resazurin, 24 h); type: cell-based, human; settings: 24 h exposure, viability by resazurin
Pseudomonas putida = test: microbe, parasite or virus in culture; type: cell-based
[3] = system: Mycobacterium tuberculosis; test: microbe, parasite or virus in culture; type: cell-based, Mycobacterium tuberculosis H37Rv
Haemolysis assay = type: cell-based; settings: sheep, ovine red blood cells, versus 100% lysis with lysis buffer
Protocol: (§1) Following incubation for 24 hours at
(§2) at 570 nm (BioTek Synergy HT microplate reader). All assays were undertaken with 3 independent experimental
(§3) Two-fold serial dilutions were then carried out diluting
(§4) 100 μL of ovine blood was
(§5) HT Microplate Reader). […] All assays
(§6) were undertaken with 3 independent experimental repeats.
(§7) DMSO compounds for compounds 3, 6 and 8.
(§8) Following addition of the
(§9) red colouring across whole well = agglutination). All assays were undertaken with three independent experimental

Mycobacterium bovis BCG = test: microbe, parasite or virus in culture; type: cell-based; settings: for MIC: Mycobacterium tuberculosis variant bovis BCG, BCG, read-out: MIC Mycobacteria, Mycobacterium bovis BCG
M. tuberculosis H37Rv [4] = type: cell-based, Mycobacterium tuberculosis H37Rv; settings: checkerboard
[5] = system: ConA mediated agglutination of ovine blood; type: cell-based
Escherichia coli = test: microbe, parasite or virus in culture; type: cell-based, Escherichia coli (Top 10)
M. tuberculosis H37Rv [6] = type: cell-based, Mycobacterium tuberculosis H37Rv; settings: for Outcome, interaction profile with Meropenem / ΣFIC, interaction profile with Meropenem: M. tuberculosis H37Rv, checkerboard; for Interaction with meropenem in checkerboard assay (words, Figure S7): representative checkerboard images
[7] = system: Mycobacterium tuberculosis H37Rv; test: Minimum bactericidal concentration (MBC), CFU plating; type: cell-based; settings: actively growing M. tuberculosis H37Rv, lowest concentration with no CFUs
ovine red blood cells = test: Haemolysis assay; type: cell-based; settings: 1 hour, tested at 12.5 mM due to solubility issues
Protocol: as §1, §2, §3, §4, §5, §6, §7, §8, §9

A549 cells [8] = system: A549 cells
[9] = Pseudomonas putida; read-out: MIC Gram-negative, Pseudomonas putida
[10] = Mycobacterium tuberculosis; M. tuberculosis H37Rv, compound alone, REMA checkerboard (Table S3); read-out: MIC
[11] = Mycobacterium tuberculosis; read-out: MIC Mycobacteria, Mycobacterium tuberculosis
[12] = Escherichia coli; read-out: MIC Gram-negative, Escherichia coli

## Trehalose Monomycolate [TMM]
[1]; read-out: Kd
  Kd: 12 µM
[1]
  BLI binding to boronic acid functionalised sensor: interacted strongly

## dextran [reference compound]
[1]
  BLI binding to boronic acid functionalised sensor: no binding was observed

## Phosphatidylinositol Mannoside 6 [PIM6]
[1]
  BLI binding to boronic acid functionalised sensor: weak binding affinity

## O=C(NCCNC(=O)c1cccc(B(O)O)c1)c1cccc(B(O)O)c1 [Compound 4, N,N'-(ethylenediamine)bis(3-phenylboronic acid)amide]
Mycobacterium smegmatis
  MIC: 3.13 mM (≈ 1110 µg/mL)
A549 cells [2]
  A549 (MIC99): 25 mM
Jurkat E6.1 cells
  Jurkat (MIC99): 12.5 mM
Caco-2 cells
  Caco-2 (MIC99): 50 mM
Pseudomonas putida; [9]
  MIC: > 25 mM
[3]; [10]
  MIC: 3.13 mM
[3]; [11]
  MIC: 1.56 to 3.13 mM (≈ 555 to 1110 µg/mL)
Haemolysis assay
  hemolysis at 1 h: 0%
Mycobacterium bovis BCG
  MIC: 0.78 mM (≈ 278 µg/mL)
M. tuberculosis H37Rv [4]
  Outcome, interaction profile with Rifampicin: Additive (values in between correspond to additivity)
  ΣFIC, interaction profile with Rifampicin: 2
[5]
  ConA agglutination: No inhibition
Escherichia coli; [12]
  MIC: > 25 mM
M. tuberculosis H37Rv [6]
  Outcome, interaction profile with Meropenem: Additive (values in between correspond to additivity)
  ΣFIC, interaction profile with Meropenem: 1
[7]
  MBC: 6.25 mM (≈ 2220 µg/mL)

## lipopolysaccharide [LPS, reference compound]
[1]
  BLI binding to boronic acid functionalised sensor: weak binding

## Phosphatidylinositol Mannosides 1 & 2 [PIM 1 + 2]
[1]
  BLI binding to boronic acid functionalised sensor: very weak binding

## Trehalose Dimycolate [TDM]
[1]; read-out: Kd
  Kd: 4 µM
[1]
  BLI binding to boronic acid functionalised sensor: interacted strongly

## mycolic acid methyl esters [MAMEs]
[1]
  BLI binding to boronic acid functionalised sensor: no detectable binding

## Galactan [reference compound]
[1]
  BLI binding to boronic acid functionalised sensor: no binding was observed

## O=C(NCCOCCOCCNC(=O)c1cccc(B(O)O)c1)c1cccc(B(O)O)c1 [Compound 5, N,N'-(2,2-(ethylenedioxy)bis(ethylamine))bis(3-phenylboronic acid)amide]
Mycobacterium smegmatis
  MIC: 3.13 mM (≈ 1390 µg/mL)
A549 cells [2]
  A549 (MIC99): 25 mM
Jurkat E6.1 cells
  Jurkat (MIC99): 12.5 mM
Caco-2 cells
  Caco-2 (MIC99): 50 mM
Pseudomonas putida; [9]
  MIC: > 25 mM
[3]; [10]
  MIC: 3.13 mM
[3]; [11]
  MIC: 1.56 to 3.13 mM (≈ 693 to 1390 µg/mL)
Haemolysis assay
  hemolysis at 1 h: 0%
Mycobacterium bovis BCG
  MIC: 0.78 to 1.56 mM (≈ 346 to 693 µg/mL)
M. tuberculosis H37Rv [4]
  Outcome, interaction profile with Rifampicin: Additive (values in between correspond to additivity)
  ΣFIC, interaction profile with Rifampicin: 2
[5]
  ConA agglutination: No inhibition
Escherichia coli; [12]
  MIC: > 25 mM
M. tuberculosis H37Rv [6]
  Outcome, interaction profile with Meropenem: Additive (values in between correspond to additivity)
  ΣFIC, interaction profile with Meropenem: 0.625
[7]
  MBC: 6.25 mM (≈ 2780 µg/mL)

## OB(O)c1ccccc1 [Compound 1, reference compound]
Mycobacterium smegmatis
  MIC: 12.5 to 25 mM (≈ 1520 to 3050 µg/mL)
A549 cells [2]
  A549 (MIC99): 50 mM
Pseudomonas putida; [9]
  MIC: 12.5 to 25 mM (≈ 1520 to 3050 µg/mL)
[3]; [11]
  MIC: 6.25 to 12.5 mM (≈ 762 to 1520 µg/mL)
Haemolysis assay
  hemolysis at 1 h: 0%
Mycobacterium bovis BCG
  MIC: 3.13 mM (≈ 382 µg/mL)
Escherichia coli; [12]
  MIC: 25 mM (≈ 3050 µg/mL)

## O=C(NCCOCCOCCOCCOCCOCCOCCOCCOCCOCCOCCOCCOCCOCCOCCOCCOCCOCCOCCOCCOCCOCCOCCOCCNC(=O)c1cccc(B(O)O)c1)c1cccc(B(O)O)c1 [Compound 7, N,N'-(polyoxyethylenebis(amine))bis(3-phenylboronic acid)amide]
Mycobacterium smegmatis
  MIC: 25 mM (≈ 34200 µg/mL)
Pseudomonas putida; [9]
  MIC: > 25 mM
Mycobacterium bovis BCG
  MIC: > 25 mM
Escherichia coli; [12]
  MIC: > 25 mM

## monosialodihexosylganglioside [GM3, reference compound]
[1]
  BLI binding to boronic acid functionalised sensor: no detectable binding

## O=C(O)c1ccc(B(O)O)cc1 [Compound 3, reference compound]
Mycobacterium smegmatis
  MIC: 25 mM (≈ 4150 µg/mL)
A549 cells [2]
  A549 (MIC99): > 25 mM
Pseudomonas putida; Pseudomonas putida, read-out: MIC Gram-negative, Pseudomonas putida
  MIC: 25 mM (≈ 4150 µg/mL)
[3]; Mycobacterium tuberculosis, read-out: MIC Mycobacteria, Mycobacterium tuberculosis
  MIC: 6.25 mM (≈ 1040 µg/mL)
Haemolysis assay
  hemolysis at 1 h: 0.9%
Mycobacterium bovis BCG
  MIC: 6.25 mM (≈ 1040 µg/mL)
Escherichia coli; Escherichia coli, read-out: MIC Gram-negative, Escherichia coli
  MIC: > 25 mM

## Lipoarabinomannan [LAM]
[1]
  Kd: 41.5 μg mL^–1
  BLI binding to boronic acid functionalised sensor: interacted strongly

## O=C(NCCCOCCOCCOCCCNC(=O)c1cccc(B(O)O)c1)c1cccc(B(O)O)c1 [Compound 6, N,N'-(4,7,10-trioxa-1,13-tridecanediamine)bis(3-phenylboronic acid)amide]
Mycobacterium smegmatis
  MIC: 3.13 mM (≈ 1620 µg/mL)
A549 cells [2]
  A549 (MIC99): 25 mM
Jurkat E6.1 cells
  Jurkat (MIC99): 25 mM
Caco-2 cells
  Caco-2 (MIC99): 25 mM
Pseudomonas putida; [9]
  MIC: > 25 mM
[3]; [10]
  MIC: 1.56 mM
[3]; [11]
  MIC: 1.56 to 3.13 mM (≈ 805 to 1620 µg/mL)
Haemolysis assay
  hemolysis at 1 h: 0%
Mycobacterium bovis BCG
  MIC: 0.78 to 1.56 mM (≈ 403 to 805 µg/mL)
M. tuberculosis H37Rv [4]
  Outcome, interaction profile with Rifampicin: Additive (values in between correspond to additivity)
  ΣFIC, interaction profile with Rifampicin: 2
[5]
  ConA agglutination: No inhibition
Escherichia coli; [12]
  MIC: > 25 mM
M. tuberculosis H37Rv [6]
  Outcome, interaction profile with Meropenem: Additive (values in between correspond to additivity)
  ΣFIC, interaction profile with Meropenem: 0.625
  Interaction with meropenem in checkerboard assay (words, Figure S7): additivity
[7]
  MBC: 6.25 mM (≈ 3230 µg/mL)

## CC1(C)[C@H](C(=O)O)N2C(=O)C[C@H]2S1(=O)=O [Sulbactam, reference compound]
[3]; [10]
  MIC: 0.134 mM
M. tuberculosis H37Rv [6]
  Outcome, interaction profile with Meropenem: Synergistic (ΣFICs of ≤0.5 designate synergistic activity)
  ΣFIC, interaction profile with Meropenem: 0.313
  Interaction with meropenem in checkerboard assay (words, Figure S7): synergistic activity
M. tuberculosis H37Rv [6]; listed as sulbactam
  ΣFIC, interaction profile with Meropenem: 0.3

## O=C(O)c1cccc(B(O)O)c1 [Compound 2, reference compound]
Mycobacterium smegmatis
  MIC: 12.5 to 25 mM (≈ 2070 to 4150 µg/mL)
A549 cells [2]
  A549 (MIC99): > 25 mM
Pseudomonas putida; [9]
  MIC: 12.5 to 25 mM (≈ 2070 to 4150 µg/mL)
[3]; [11]
  MIC: 6.25 to 12.5 mM (≈ 1040 to 2070 µg/mL)
Haemolysis assay
  hemolysis at 1 h: 4.5%
Mycobacterium bovis BCG
  MIC: 12.5 mM (≈ 2070 µg/mL)
Escherichia coli; [12]
  MIC: > 25 mM

## Lipomannan [LM]
[1]
  BLI binding to boronic acid functionalised sensor: interacted strongly

## O=C(CCN(CCOCCOCCN(CCC(=O)NCCOCCOCCNC(=O)c1cccc(B(O)O)c1)CCC(=O)NCCOCCOCCNC(=O)c1cccc(B(O)O)c1)CCC(=O)NCCOCCOCCNC(=O)c1cccc(B(O)O)c1)NCCOCCOCCNC(=O)c1cccc(B(O)O)c1 [Compound 8, 2,2’-(Ethylenedioxy)bis(ethylamine) G1 PAMAM tetra(3-phenylboronic acid)amide dendrimer]
Mycobacterium smegmatis
  MIC Mycobacteria, Mycobacterium smegmatis: 0.78 mM (≈ 1210 µg/mL)
Pseudomonas putida
  MIC Gram-negative, Pseudomonas putida: >25 mM
[3]
  MIC Mycobacteria, Mycobacterium tuberculosis: 0.78 to 1.56 mM
  MIC against Mtb: 0.78 mM (≈ 1210 µg/mL)
Ovine red blood cells
  Haemolysis (%): 4.5%
Mycobacterium bovis BCG; resazurin reduction microtitre plate assay
  MIC Mycobacteria, Mycobacterium bovis BCG: 1.56 mM (≈ 2420 µg/mL)
Escherichia coli
  MIC Gram-negative, Escherichia coli: >25 mM
A549 cells [8]
  A549 (MIC99): > 25 mM
